According to US12344610B2, “APOL1 inhibitors and methods of use” (Maze Therapeutics, Inc., priority 2022, dated 2025):
Where two headings read alike, the source gives them in different places.

Tests used:
Format in all cases: cell-based
[1] = system: HEK293 cells overexpressing APOL1 G2; test: APOL1 G2 HEK293 cell rescue assay (reversal of cell death caused by overexpression of APOL1); settings: geometric mean of at least 2 assay runs, † = single assay run
In short: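 Each compound tested in duplicate wells on one plate per run, with values usually the geometric mean across at least two runs on different days, occasionally from one run only. Read-out: concentration giving half-maximal rescue of APOL1 G2 overexpression-induced death of HEK293 cells.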

[2] = system: HEK293 clonal cell line overexpressing APOL1 G1; test: APOL1 G1 HEK293 cell rescue assay (Example B3); settings: geometric mean of at least 2 runs, † = single run, ¥ = concentration at 50% rescue estimated (no sigmoidal curve)
In short: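 Rescue of cell death caused by APOL1 G1 overexpression was measured in a clonal HEK293 line. Compounds were tested in duplicate on one plate, and EC50s were geometric means across at least two runs on different days. Some values are estimated 50%-rescue concentrations where curve fitting failed.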

[3] = system: Trypanosoma brucei Lister 427 VSG221 with APOL1 G0 recombinant protein; test: APOL1 G0 trypanosome cell rescue assay (Example B5); settings: geometric mean of at least 2 assay runs, † = single assay run
Method: (§1) APOL1 G0/G1/G2 viability assay for measurement of cytotoxicity reversal by compound in trypanosomes (APOL1 G0/G1/G2 trypanosome cell rescue assay).
(§2) APOL1 protein expression and purification. The mature from of APOL1 proteins, residues 28-398, were expressed from a pET28a vector with an N-terminal His-tag and TEV cleavage site. Proteins were expressed in Escherichia coli BL21-CodonPlus (DE3)-RIPL cells. Liter cultures of terrific broth were grown at 37° C. until an OD600 of ˜0.8 was reached and then induced with isopropyl β-D-1-thiogalactopyranoside (IPTG; final concentration of 500 μM). Afterwards, cultures were grown for 3 hours at 37° C. For protein purification, cell pellets were resuspended in lysis buffer (50 mM Tris, pH 8.5, 5 mM EDTA, 0.5 mM DTT, 0.5 mM PMSF) supplemented with a cocktail of protease inhibitors. Cells were lysed by sonication, centrifuged, and the resulting pellet was collected. The homogenized pellet was resuspended in wash buffer (50 mM Tris, pH 8.5, 0.5 M NaCl, 5 mM EDTA, 0.5 mM DTT, 0.5 mM PMSF, protease inhibitor cocktail) and collected by centrifugation. Inclusion body dissolution was then conducted as previously reported (PNAS 112(9) (2015) 2894-2899; www.pnas.org/cgi/doi/10.1073/pnas.1421953112; herein incorporated by reference in its entirety). The solubilized APOL1 protein was applied to a nickel column (HisTrap, GE Life Sciences) preequilibrated in buffer A (50 mM Tris, pH 8.5, 0.15 M NaCl, 1% zwittergent 3-14, protease inhibitor cocktail). The resin was washed with buffer B (50 mM Tris, pH 8.5, 0.15 M NaCl, 0.1% DDM) and TEV cleavage was conducted on column overnight. Afterwards, the column was washed with buffer B, followed by His-washing buffer (50 mM Tris, pH 8.5, 0.15 M NaCl, 0.1% DDM, 10 mM imidazole). The protein was then removed from the resin using His-elution buffer (50 mM Tris, pH 8.5, 0.15 M NaCl, 0.1% DDM, 250 mM imidazole). The sample was further purified by size exclusion chromatography using a Superdex 200 Increase column (GE Life Sciences) in 50 mM Tris, pH 8.5, 0.15 M NaCl, and 0.1% DDM buffer. All APOL1 proteins (G0, G1, and G2) were generated at Viva Biotech (Shanghai) Ltd.
(§3) Modified HMI-9 media preparation (https://tryps.rockefeller.edu/trypsru2_culture_media_preparation.html; herein incorporated by reference in its entirety). Trypanosomes were cultured in modified HMI-9 media consisting of IMDM (ThermoFisher, 12440053), 10% heat-inactivated FBS (Gibco, 10082-147), 10% Serum Plus (Sigma-Aldrich, 14008C), 1×HMI-9 supplement stock, and 1% hypoxanthine stock. The 10×HMI-9 supplement stock was made by dissolving 280 mg bathocuproine disulfonic acid (Sigma-Aldrich, 146625), 1820 mg cysteine (add after bathocuproine) (Sigma-Aldrich, 30089), 1100 mg pyruvic acid (Sigma-Aldrich, 107360), 100 mg uracil (Sigma-Aldrich, U0750), 100 mg cytosine (Sigma-Aldrich, C3506) and 140 μL 2-mercaptoethanol (Sigma-Aldrich, M3148) in 1000 mL of water. The resulting solution was aliquoted and stored at −20° C. The hypoxanthine stock was made by dissolving 4 g of NaOH into 1000 mL of water. Afterwards, 13.6 g hypoxanthine (Sigma-Aldrich, H9377) was added to this mixture. The resulting solution was aliquoted and stored at −20° C.
(§4) Assay Setup. Trypanosoma brucei Lister 427 VSG221 (ATCC, PRA-382) cells were cultured in modified HMI-9 media. All experiments were performed in 384-well, white, solid bottom, tissue culture treated plates (Greiner, 781080). Assay ready plates were generated with duplicate 11-point compound dilution series that consisted of 2-fold stepwise dilutions (0.4% DMSO final). To each well, was added 20 μL of 2 μg/mL of APOL1 G0, G1, or G2 recombinant protein in modified HMI-9 media using a MultiDrop Combi (final APOL1 protein concentration=[…]). Trypanosomes were counted using a hemacytometer and diluted in modified HMI-9 media to a concentration of 1.25×10^4 cell/mL. […]

[4] = system: Trypanosoma brucei Lister 427 VSG221 with APOL1 G1 recombinant protein; test: APOL1 G1 trypanosome cell rescue assay (Example B5); settings: geometric mean of at least 2 assay runs, † = single assay run
Method: as §1, §2, §3, §4

[5] = system: Trypanosoma brucei Lister 427 VSG221 with APOL1 G2 recombinant protein; test: APOL1 G2 trypanosome cell rescue assay (Example B5); settings: geometric mean of at least 2 assay runs, † = single assay run
Method: as §1, §2, §3, §4

[6] = HEK293 clonal line overexpressing APOL1 G1
[7] = read-out: APOL1 G0 Trypanosome Rescue EC50, Trypanosoma brucei Lister 427 VSG221 with APOL1 G0 recombinant protein, 20 hours, CellTiter-Glo
[8] = read-out: APOL1 G1 Trypanosome Rescue EC50, Trypanosoma brucei Lister 427 VSG221 with APOL1 G1 recombinant protein, 20 hours, CellTiter-Glo
[9] = read-out: APOL1 G2 Trypanosome Rescue EC50, Trypanosoma brucei Lister 427 VSG221 with APOL1 G2 recombinant protein, 20 hours, CellTiter-Glo
[10] = Homo sapiens, HEK293, HEK293 overexpressing APOL1 G2
[11] = Homo sapiens, HEK293, HEK293 clonal line overexpressing APOL1 G1
[12] = Trypanosoma brucei, 20 h, read-out: APOL1 G0 Trypanosome Rescue EC50, Trypanosoma brucei Lister 427 VSG221 with APOL1 G0 recombinant protein, 20 hours, CellTiter-Glo
[13] = Trypanosoma brucei, 20 h, read-out: APOL1 G1 Trypanosome Rescue EC50, Trypanosoma brucei Lister 427 VSG221 with APOL1 G1 recombinant protein, 20 hours, CellTiter-Glo
[14] = Trypanosoma brucei, 20 h, read-out: APOL1 G2 Trypanosome Rescue EC50, Trypanosoma brucei Lister 427 VSG221 with APOL1 G2 recombinant protein, 20 hours, CellTiter-Glo

SMILES	EC50 ([1]; HEK293 overexpressing APOL1 G2)	EC50 [2, 6]	EC50 [3, 7]	EC50 [4, 8]	EC50 [5, 9]	EC50 [1, 10]	EC50 [2, 11]	EC50 [3, 12]	EC50 [4, 13]	EC50 [5, 14]
CN1C(=O)C2(CCN(CCOc3ccc(C4(S(C)(=O)=O)CC(O)C4)cc3)CC2)c2cc(C(F)F)ccc21 (single isomer, unassigned) [Compound 279, 5-(difluoromethyl)-1-methyl-1′-(2-{4-[(trans) or (cis)-3-hydroxy-1-methanesulfonylcyclobutyl]phenoxy}ethyl)-1,2-dihydrospiro[indole-3,4′-piperidin]-2-one]	60 nM	234 nM	213 nM	283 nM	83.1 nM	–	–	–	–	–
CS(=O)(=O)C1(c2ccc(OCCN3CCC4(CC3)C(=O)Nc3ccc(C(F)F)cc34)cc2)CC(O)C1 (single isomer, unassigned) [Compound 282, 5-(difluoromethyl)-1′-(2-{4-[(trans) or (cis)-3-hydroxy-1-methanesulfonylcyclobutyl]phenoxy}ethyl)-1,2-dihydrospiro[indole-3,4′-piperidin]-2-one]	130 nM	383 nM	181 nM	230 nM	59.8 nM	–	–	–	–	–
O=C1CCc2cc(OCCN3CCC4(CC3)C(=O)Nc3ccc(C(F)F)cc34)cnc2N1C1CC(CO)C1 (single isomer, unassigned) [Compound 309, 5-(difluoromethyl)-1′-[2-({7-oxo-8-[(cis) or (trans)-3-(hydroxymethyl)cyclobutyl]-5,6,7,8-tetrahydro-1,8-naphthyridin-3-yl}oxy)ethyl]-1,2-dihydrospiro[indole-3,4′-piperidin]-2-one]	–	–	–	–	–	55.9 nM	134 nM	58.2 nM	70.6 nM	23.4 nM
CC1(O)CC(CN2C(=O)CCc3cc(OCCN4CCC5(CC4)C(=O)Nc4ccc(C(F)F)cc45)cnc32)C1 (single isomer, unassigned) [Compound 311, 5-(difluoromethyl)-1′-{2-[(7-oxo-8-{[(cis) or (trans)-3-hydroxy-3-methylcyclobutyl]methyl}-5,6,7,8-tetrahydro-1,8-naphthyridin-3-yl)oxy]ethyl}-1,2-dihydrospiro[indole-3,4′-piperidin]-2-one]	–	–	–	–	–	38.3 nM	100 nM	37.4 nM	50.3 nM	13.8 nM
CC1(O)CC(CN2C(=O)CCc3cc(OCCN4CCC5(CC4)C(=O)Nc4ccc(C(F)F)cc45)cnc32)C1 (single isomer, unassigned) [Compound 312, 5-(difluoromethyl)-1′-{2-[(7-oxo-8-{[(trans) or (cis)-3-hydroxy-3-methylcyclobutyl]methyl}-5,6,7,8-tetrahydro-1,8-naphthyridin-3-yl)oxy]ethyl}-1,2-dihydrospiro[indole-3,4′-piperidin]-2-one]	24.3 nM	66.5 nM	28.2 nM	34.4 nM	10.1 nM	–	–	–	–	–
CC1(O)CC(CN2C(=O)CCc3cc(OCCN4CCC5(CC4)C(=O)Nc4ccc(Cl)cc45)cnc32)C1 (single isomer, unassigned) [Compound 313, 5-chloro-1′-{2-[(7-oxo-8-{[(cis) or (trans)-3-hydroxy-3-methylcyclobutyl]methyl}-5,6,7,8-tetrahydro-1,8-naphthyridin-3-yl)oxy]ethyl}-1,2-dihydrospiro[indole-3,4′-piperidin]-2-one]	63.3 nM	135 nM	–	71.8 nM	–	–	–	54.5 nM	–	20.2 nM
CC1(O)CC(c2ncc(OCCN3CCC4(CC3)C(=O)Nc3ccc(Cl)cc34)cn2)C1 (single isomer, unassigned) [Compound 392, 5-chloro-1′-[2-({2-[(trans) or (cis)-3-hydroxy-3-methylcyclobutyl)pyrimidin-5-yl}oxy)ethyl]-1,2-dihydrospiro[indole-3,4′-piperidin]-2-one]	27.1 nM	–	70 nM	79.4 nM	28.5 nM	–	89.9 nM	–	–	–
